Patent US20160345582A1, “HERBICIDE COMPOSITIONS FOR WEED CONTROL” (Valent U.S.A., Corporation, priority 2015, published 2016)

What was measured:
[1] = system: Velvetleaf; experiment: Field test 2011 (Example 1), post emergence weed control in corn; assay type: in vivo, Abutilon theophrasti; conditions: Study 2; 30 DAT; topramezone 18.4, pyroxasulfone 90 g ai/ha; applied at V5 corn stage, weeds 4 to 10 inches
Protocol: (§1) In 2011, two field tests were conducted using similar protocols. Both studies were completed in Indiana, United States. Weeds were 4 to 10 inches in height at time of application. Untreated checks were included in the trial, however pyroxasulfone alone is not effective for post emergence weed control and was therefore not included as a standalone treatment. Roundup Ready corn (Zea maize) was used in the test as the crop plant utilizing a natural population of weeds. All of the treatments contained non-ionic surfactant at 0.25% v/v and were applied at the V5 corn growth stage. Applications were made utilizing a hand boom sprayer with application area for each treatment equating to 10 feet by 200 feet.
(§2) Topramezone was administered at 18.4 grams/hectare. Pyroxasulfone was administered at 90 grams/hectare.
(§3) Thirty days after treatment (“DAT”) readings were taken to determine the survival of Ivyleaf Morningglory, Yellow Nutsedge, Velvetleaf and Annual Grass. Survival ratings were taken by counting the number of alive and dead plants at the time of the reading. All data was analyzed using Bartlett's test and with p value of […] for determining significance of the results. The Effect of Topamezone and Pyroxasulfone on Weeds (% Control).”

[2] = system: Barnyardgrass; experiment: Field test 2013 (Example 2), post emergence weed control in corn; assay type: in vivo, Echinochloa crus-galli; conditions: 30 DAT, topramezone 18.4, pyroxasulfone 90 g ai/ha, applied at V5 corn stage
[3] = system: Yellow Nutsedge; experiment: Field test 2011 (Example 1), post emergence weed control in corn; assay type: in vivo, Cyperus esculentus; conditions: Study 1; 30 DAT; topramezone 18.4, pyroxasulfone 90 g ai/ha; applied at V5 corn stage, weeds 4 to 10 inches
Protocol: as §1, §2, §3

[4] = system: Velvetleaf; experiment: Field test 2013 (Example 2), post emergence weed control in corn; assay type: in vivo, Abutilon theophrasti; conditions: Study 9; 30 DAT; topramezone 18.4, pyroxasulfone 90 g ai/ha; applied at V5 corn stage
[5] = system: Giant Ragweed; experiment: as above; assay type: in vivo, Ambrosia trifida; conditions: Study 7; 30 DAT; topramezone 18.4, pyroxasulfone 90 g ai/ha; applied at V5 corn stage
[6] = system: Ivyleaf Morningglory; experiment: Field test 2011 (Example 1), post emergence weed control in corn; assay type: in vivo, Ipomoea hederacea; conditions: Study 1; 30 DAT; topramezone 18.4, pyroxasulfone 90 g ai/ha; applied at V5 corn stage, weeds 4 to 10 inches
Protocol: as §1, §2, §3

[7] = system: Waterhemp; experiment: Field test 2013 (Example 2), post emergence weed control in corn; assay type: in vivo, Amaranthus tuberculatus; conditions: 30 DAT, applied at V5 corn stage
[8] = system: Yellow Nutsedge; experiment: as above; assay type: in vivo, Cyperus esculentus; conditions: Study 7; 30 DAT; topramezone 18.4, pyroxasulfone 90 g ai/ha; applied at V5 corn stage
[9] = system: Palmer Amaranth; experiment: as above; assay type: in vivo, Amaranthus palmeri; conditions: Study 7; 30 DAT; topramezone 18.4, pyroxasulfone 90 g ai/ha; applied at V5 corn stage
[10] = system: Foxtail; experiment: as above; assay type: in vivo, Setaria species; conditions: Study 6; 30 DAT; topramezone 18.4, pyroxasulfone 90 g ai/ha; applied at V5 corn stage
[11] = system: Common Ragweed; experiment: as above; assay type: in vivo, Ambrosia artemisiifolia; conditions: Study 4; 30 DAT; topramezone 18.4, pyroxasulfone 90 g ai/ha; applied at V5 corn stage
[12] = system: Broadleaf signalgrass; experiment: as above; assay type: in vivo, Brachiaria platyhylla; conditions: Study 7; 30 DAT; topramezone 18.4, pyroxasulfone 90 g ai/ha; applied at V5 corn stage
[13] = system: Giant Foxtail; experiment: as above; assay type: in vivo, Setaria faberi; conditions: Study 5; 30 DAT; topramezone 18.4, pyroxasulfone 90, atrazine 840 g ai/ha; applied at V5 corn stage
[14] = system: Annual Grass; experiment: Field test 2011 (Example 1), post emergence weed control in corn; assay type: in vivo; conditions: Study 2; 30 DAT; topramezone 18.4, pyroxasulfone 90 g ai/ha; applied at V5 corn stage, weeds 4 to 10 inches
Protocol: as §1, §2, §3

[15] = system: Fall Panicum; experiment: Field test 2013 (Example 2), post emergence weed control in corn; assay type: in vivo; conditions: Study 3; 30 DAT; mesotrione 105, pyroxasulfone 90 g ai/ha; applied at V5 corn stage

Row | SMILES | % Control Velvetleaf [1] | % Control Barnyardgrass ([2]; Study 7) | % Control Barnyardgrass ([2]; Study 9) | % Control Yellow Nutsedge [3] | % Control Velvetleaf [4] | % Control Giant Ragweed [5] | % Control Ivyleaf Morningglory [6] | % Control Waterhemp ([7]; Study 6, topramezone 18.4, pyroxasulfone 90 g ai/ha) | % Control Waterhemp ([7]; Study 8, topramezone 18.4, pyroxasulfone 90 g ai/ha) | % Control Yellow Nutsedge [8] | % Control Palmer Amaranth [9] | % Control Foxtail [10] | % Control Common Ragweed [11] | % Control Broadleaf signalgrass [12] | % Control Giant Foxtail [13] | % Control Annual Grass [14] | % Control Fall Panicum [15] | % Control Waterhemp ([7]; Study 3, mesotrione 105, pyroxasulfone 90 g ai/ha)
1 | Cc1c(C(=O)c2cnn(C)c2O)ccc(S(C)(=O)=O)c1C1=NOCC1 [Topramezone, [3-(4,5-dihydro-1,2-oxazol-3-yl)-4-mesyl-o-tolyl](5-hydroxy-1-methylpyrazol-4-yl)methanone] | 95% | 80% | 93% | 73% | 90% | 91% | 68% | 94% | 90% | 60% | 93% | 98% | 94% | 90% | 87% | 33% | – | –
2 | CS(=O)(=O)c1ccc(C(=O)C2C(=O)CCCC2=O)c([N+](=O)[O-])c1 [Mesotrione, 2[4-(methylsulfonyl)-2-nitrobenzoyl]cyclohexane-1,3-dione] | – | – | – | – | – | – | – | – | – | – | – | – | – | – | – | – | 98% | 80%
